# Assay results as given in patent publication US10457655B2, “Compounds and compositions for inhibition of FASN” (FORMA Therapeutics, Inc., priority 2013, dated 2019).
# Molecular target: FASN enzyme (Homo sapiens, UniProt P49327)
# Assay: Enzymatic Assay for FASN Inhibitors
# Assay type: biochemical
# Conditions: not given
# Method: Assays were performed in a 384-well black plate to measure the inhibition of FASN activities by individual compounds herein disclosed. An aliquot of 250 nL of compound was incubated with 10 μL of 40 nM FASN enzyme in assay buffer (50 mM HEPES pH=7.3, 0.5 mM EDTA, 1 mM Ascorbate, 100 mM NaCl and 0.04% TritonX-100) in each well at 25° C. for 60 minutes. After the plate was centrifuged briefly, 10 μL of substrate mix (20 μM Acetyl-CoA, 60 μM Malonyl-CoA, and 100 μM NADPH in assay buffer) was added to each well. The reaction was maintained at 25° C. for 90 minutes. The reaction was then quenched by adding 10 μL of 90 μM 7-Diethylamino-3-(4′-Maleimidylpheynyl)-4-Methylcoumarin in 50/50 Ethanol/H2O solution. The assay plate was incubated at 25° C. for 15 minutes, and read on a plate reader with excitation and emission wavelength at 360 nm and 530 nm, respectively. The IC50 of a given compound was calculated by fitting the dose response curve with a four parameter logistic equation.
# Chain of FASN enzyme (P49327 whole entry): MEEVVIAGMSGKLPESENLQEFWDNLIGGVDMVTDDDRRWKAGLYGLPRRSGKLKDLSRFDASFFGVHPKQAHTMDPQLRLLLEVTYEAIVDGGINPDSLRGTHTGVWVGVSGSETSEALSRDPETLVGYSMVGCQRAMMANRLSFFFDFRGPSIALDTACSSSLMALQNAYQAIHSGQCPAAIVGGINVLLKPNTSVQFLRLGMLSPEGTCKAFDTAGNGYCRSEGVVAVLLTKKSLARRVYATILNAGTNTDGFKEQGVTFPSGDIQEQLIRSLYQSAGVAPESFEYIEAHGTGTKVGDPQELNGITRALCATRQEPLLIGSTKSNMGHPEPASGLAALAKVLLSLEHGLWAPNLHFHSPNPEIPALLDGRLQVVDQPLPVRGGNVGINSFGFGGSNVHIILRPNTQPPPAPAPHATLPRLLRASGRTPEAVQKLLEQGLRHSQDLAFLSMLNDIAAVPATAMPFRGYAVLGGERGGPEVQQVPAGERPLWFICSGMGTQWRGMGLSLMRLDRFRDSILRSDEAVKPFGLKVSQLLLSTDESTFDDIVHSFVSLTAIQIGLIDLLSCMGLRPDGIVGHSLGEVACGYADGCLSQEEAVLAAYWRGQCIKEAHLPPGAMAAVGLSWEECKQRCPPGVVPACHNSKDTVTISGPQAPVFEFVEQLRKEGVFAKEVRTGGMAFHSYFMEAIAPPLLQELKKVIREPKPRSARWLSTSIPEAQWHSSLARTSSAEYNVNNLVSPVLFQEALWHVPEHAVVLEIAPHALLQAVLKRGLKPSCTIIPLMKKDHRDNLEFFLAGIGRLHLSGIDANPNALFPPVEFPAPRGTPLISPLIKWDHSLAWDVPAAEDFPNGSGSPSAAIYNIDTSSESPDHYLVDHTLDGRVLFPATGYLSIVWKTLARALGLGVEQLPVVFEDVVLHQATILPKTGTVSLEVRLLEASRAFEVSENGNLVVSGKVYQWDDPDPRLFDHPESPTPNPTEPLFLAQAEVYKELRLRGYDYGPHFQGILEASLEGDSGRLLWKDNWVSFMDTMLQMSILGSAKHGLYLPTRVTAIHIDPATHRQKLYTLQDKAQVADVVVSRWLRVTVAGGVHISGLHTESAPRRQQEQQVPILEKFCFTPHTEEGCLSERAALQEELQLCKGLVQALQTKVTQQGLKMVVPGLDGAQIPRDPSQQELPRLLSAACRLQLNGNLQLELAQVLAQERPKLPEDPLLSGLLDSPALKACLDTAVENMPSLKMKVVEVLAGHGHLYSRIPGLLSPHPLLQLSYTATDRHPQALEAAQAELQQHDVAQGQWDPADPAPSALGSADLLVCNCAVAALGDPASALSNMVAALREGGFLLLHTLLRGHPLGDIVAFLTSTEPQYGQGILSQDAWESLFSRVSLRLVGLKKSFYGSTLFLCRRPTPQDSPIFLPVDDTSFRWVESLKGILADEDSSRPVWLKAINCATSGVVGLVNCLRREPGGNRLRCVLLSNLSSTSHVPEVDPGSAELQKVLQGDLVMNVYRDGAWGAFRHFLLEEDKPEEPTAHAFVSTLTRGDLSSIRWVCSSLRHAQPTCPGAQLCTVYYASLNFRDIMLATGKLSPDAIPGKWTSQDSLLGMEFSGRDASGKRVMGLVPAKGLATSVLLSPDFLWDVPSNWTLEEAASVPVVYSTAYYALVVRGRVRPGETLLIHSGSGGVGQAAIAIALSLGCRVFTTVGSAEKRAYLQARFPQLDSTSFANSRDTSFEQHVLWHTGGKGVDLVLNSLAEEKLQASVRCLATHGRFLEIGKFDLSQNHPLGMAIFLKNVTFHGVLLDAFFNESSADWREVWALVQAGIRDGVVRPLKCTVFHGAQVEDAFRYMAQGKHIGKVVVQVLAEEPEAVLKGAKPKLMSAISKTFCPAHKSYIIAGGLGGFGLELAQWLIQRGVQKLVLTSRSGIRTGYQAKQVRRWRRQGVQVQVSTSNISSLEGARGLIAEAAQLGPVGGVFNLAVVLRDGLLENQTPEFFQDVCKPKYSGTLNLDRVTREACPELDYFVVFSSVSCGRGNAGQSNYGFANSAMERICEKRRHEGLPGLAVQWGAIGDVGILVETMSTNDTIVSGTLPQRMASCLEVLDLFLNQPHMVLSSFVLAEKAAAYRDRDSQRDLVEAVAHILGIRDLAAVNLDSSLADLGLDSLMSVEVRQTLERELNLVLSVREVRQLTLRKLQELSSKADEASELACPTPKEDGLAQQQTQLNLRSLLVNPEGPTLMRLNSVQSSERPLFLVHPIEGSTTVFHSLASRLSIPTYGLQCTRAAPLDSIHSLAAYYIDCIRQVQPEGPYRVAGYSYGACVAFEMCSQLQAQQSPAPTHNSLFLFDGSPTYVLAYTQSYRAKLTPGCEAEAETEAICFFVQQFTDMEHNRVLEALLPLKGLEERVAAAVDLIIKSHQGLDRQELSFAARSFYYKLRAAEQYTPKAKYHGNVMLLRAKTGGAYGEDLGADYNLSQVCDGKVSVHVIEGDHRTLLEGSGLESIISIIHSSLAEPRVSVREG
row,Structure (SMILES),IC50
1,CNC(=O)c1cccc(-c2ccc(C(=O)N3CCN(C(=O)C4(O)CC4)CC3)cc2)n1 [6-{4-[4-(1-hydroxycyclopropanecarbonyl)piperazine-1-carbonyl]phenyl}-N-methylpyridine-2-carboxamide],< 500 nM
2,O=C(c1ccc(-c2cccc(S(=O)(=O)C3CC3)c2)cc1F)N1CCN(C(=O)C2(O)CC2)CC1 [1-(4-{4-[3-(cyclopropanesulfonyl)phenyl]-2-fluorobenzoyl}piperazine-1-carbonyl)cyclopropan-1-ol],< 500 nM
3,"O=C(c1ccc(N2CCc3[nH]c4ccccc4c3C2)cc1)N1CCN(C(=O)C2(O)CC2)CC1 [1-[4-(4-{1H,2H,3H,4H,5H-pyrido[4,3-b]indol-2-yl}benzoyl)piperazine-1-carbonyl]cyclopropan-1-ol]",< 500 nM
4,"N#Cc1ccc2c(c1)CN(c1ccc(C(=O)N3CCN(C(=O)C4(O)CC4)CC3)cc1)CC2 [2-{4-[4-(1-hydroxycyclopropanecarbonyl)piperazine-1-carbonyl]phenyl}-1,2,3,4-tetrahydroisoquinoline-7-carbonitrile]",< 500 nM
5,C[C@@H]1CN(C(=O)c2ccc(-c3ccc(Cl)cc3F)cc2)CCN1C(=O)C1(O)CC1 [1-[(2R)-4-[4-(4-chloro-2-fluorophenyl)benzoyl]-2-methylpiperazine-1-carbonyl]cyclopropan-1-ol],< 500 nM
6,"Cn1cc2ccc(-c3cc(F)c(C(=O)N4CCN(C(=O)C5(O)CC5)CC4)c(F)c3)cc2n1 [1-{4-[2,6-difluoro-4-(2-methyl-2H-indazol-6-yl)benzoyl]piperazine-1-carbonyl}cyclopropan-1-ol]",< 500 nM
7,"O=C(c1ccc(-c2nc3ccc(Cl)cc3o2)c(F)c1)N1CCN(C(=O)C2(O)CC2)CC1 [1-{4-[4-(6-chloro-1,3-benzoxazol-2-yl)-3-fluorobenzoyl]piperazine-1-carbonyl}cyclopropan-1-ol]",< 500 nM
8,"O=C(c1ccc(N2CCc3c([nH]c4ccccc34)C2)cc1)N1CCN(C(=O)C2(O)CC2)CC1 [1-[4-(4-{1H,2H,3H,4H,9H-pyrido[3,4-b]indol-2-yl}benzoyl)piperazine-1-carbonyl]cyclopropan-1-ol]",< 500 nM
9,O=C(c1ccc(-c2ccccc2)cc1)N1CCN(C(=O)C2(O)CC2)CC1 [1-({4-[(4-phenylphenyl)carbonyl]piperazin-1-yl}carbonyl)cyclopropan-1-ol],< 500 nM
10,"Nc1cc(-c2cccc(-c3ccc(C(=O)N4CCN(C(=O)C5(N)CC5)CC4)c(F)c3)c2)no1 [3-(3-{4-[4-(1-aminocyclopropanecarbonyl)piperazine-1-carbonyl]-3-fluorophenyl}phenyl)-1,2-oxazol-5-amine]",< 500 nM
11,Cc1nn(-c2ccc(C(=O)N3CCN(C(=O)C4(O)CC4)CC3)cc2)c2ccccc12 [(4-(1-hydroxycyclopropane-1-carbonyl)piperazin-1-yl)(4-(3-methyl-1H-indazol-1-yl)phenyl)methanone],< 500 nM
12,O=C(c1ccc(-c2cccc(OCC3CC3)c2)cc1)N1CCN(C(=O)C2(O)CC2)CC1,< 500 nM
13,"O=C(c1ccc(-c2nc3ccccn3c2Cl)c(F)c1)N1CCN(C(=O)C2(O)CC2)CC1 [1-[4-(4-{3-chloroimidazo[1,2-a]pyridin-2-yl}-3-fluorobenzoyl)piperazine-1-carbonyl]cyclopropan-1-ol]",< 500 nM
14,Cn1ccc2cc(-c3cnc(C(=O)N4CCN(C(=O)C5(O)CC5)CC4)cn3)ccc21 [1-[(4-{[5-(1-methyl-1H-indol-5-yl)pyrazin-2-yl]carbonyl}piperazin-1-yl)carbonyl]cyclopropan-1-ol],< 500 nM
15,CS(=O)(=O)n1ccc2ccc(-c3ccc(C(=O)N4CCN(C(=O)C5(O)CC5)CC4)cc3)cc21 [1-{4-[4-(1-methanesulfonyl-1H-indol-6-yl)benzoyl]piperazine-1-carbonyl}cyclopropan-1-ol],< 500 nM
16,Cn1ncc2ccc(-c3ccc(C(=O)N4CCN(C(=O)C5(N)CC5)CC4)cc3)cc21,< 500 nM
17,O=C(c1ccc(-c2ccc3nn(C4CC4)cc3c2)cc1)N1CCN(C(=O)C2(O)CC2)CC1 [1-{4-[4-(2-cyclopropyl-2H-indazol-5-yl)benzoyl]piperazine-1-carbonyl}cyclopropan-1-ol],< 500 nM
18,"Cn1cnc2cc(-c3ccc(C(=O)N4CCN(C(=O)C5(O)CC5)CC4)cc3F)ccc21 [1-{4-[3-fluoro-4-(1-methyl-1H-1,3-benzodiazol-5-yl)benzoyl]piperazine-1-carbonyl}cyclopropan-1-ol]",< 500 nM
19,O=C(c1ccc(-c2ccc(Cl)cc2)cc1)N1CCN(C(=O)C2(O)CC2)CC1,< 500 nM
20,"O=C(c1ccc(N2CCc3ccccc3CC2)cc1)N1CCN(C(=O)C2(O)CC2)CC1 [1-{4-[4-(2,3,4,5-tetrahydro-1H-3-benzazepin-3-yl)benzoyl]piperazine-1-carbonyl}cyclopropan-1-ol]",< 500 nM
21,O=C(c1ccc(-c2ccc3c(C4CC4)n[nH]c3c2)cc1)N1CCN(C(=O)C2(O)CC2)CC1 [1-{4-[4-(3-cyclopropyl-1H-indazol-6-yl)benzoyl]piperazine-1-carbonyl}cyclopropan-1-ol],< 500 nM
22,O=C(c1ccc(-c2cnc3ccccc3c2)cc1)N1CCN(C(=O)C2(O)CC2)CC1 [1-[(4-{[4-(quinolin-3-yl)phenyl]carbonyl}piperazin-1-yl)carbonyl]cyclopropan-1-ol],< 500 nM
23,"O=C(Nc1noc2ccc(-c3ccc(C(=O)N4CCN(C(=O)C5(O)CC5)CC4)cc3)cc12)C1CC1 [N-(5-{4-[4-(1-hydroxycyclopropanecarbonyl)piperazine-1-carbonyl]phenyl}-1,2-benzoxazol-3-yl)cyclopropanecarboxamide]",< 500 nM
24,NC(=O)c1cc2cc(-c3ccc(C(=O)N4CCN(C(=O)C5(O)CC5)CC4)cc3)ccc2[nH]1 [5-[4-({4-[(1-hydroxycyclopropyl)carbonyl]piperazin-1-yl}carbonyl)phenyl]-1H-indole-2-carboxamide],< 500 nM
25,N#CC1(c2cccc(-c3ccc(C(=O)N4CCN(C(=O)C5(O)CC5)CC4)cc3)c2)CCOCC1 [4-(3-{4-[4-(1-hydroxycyclopropanecarbonyl)piperazine-1-carbonyl]phenyl}phenyl)oxane-4-carbonitrile],< 500 nM
26,"O=C(c1ccc(-c2nc3ccc(Cl)cc3o2)cc1Cl)N1CCN(C(=O)C2(O)CC2)CC1 [1-{4-[2-chloro-4-(6-chloro-1,3-benzoxazol-2-yl)benzoyl]piperazine-1-carbonyl}cyclopropan-1-ol]",< 500 nM

# Same assay, conditions: FASN enzymatic assay; Table 2-2
row,Structure (SMILES),IC50
1,"O=C(c1ccc(-c2cn3ccnc3cn2)cc1)N1CCN(C(=O)C2(O)CC2)CC1 [1-({4-[(4-{imidazo[1,2-a]pyrazin-6-yl}phenyl)carbonyl]piperazin-1-yl}carbonyl)cyclopropan-1-ol]",500 to 5000 nM
2,Cc1cccc(-c2ccc(C(=O)N3CCN(C(=O)C4(O)CC4)CC3)cc2)c1F [1-[(4-{[4-(2-fluoro-3-methylphenyl)phenyl]carbonyl}piperazin-1-yl)carbonyl]cyclopropan-1-ol],500 to 5000 nM
3,"Cc1nc(-c2ccc3c(ccn3C)c2)sc1C(=O)N1CCN(C(=O)C2(O)CC2)CC1 [1-[(4-{[4-methyl-2-(1-methyl-1H-indol-5-yl)-1,3-thiazol-5-yl]carbonyl}piperazin-1-yl)carbonyl]cyclopropan-1-ol]",500 to 5000 nM
4,O=C(c1ccc(-c2cc(C(F)(F)F)ccc2Cl)cc1)N1CCN(C(=O)C2(O)CC2)CC1 [1-{[4-({4-[2-chloro-5-(trifluoromethyl)phenyl]phenyl}carbonyl)piperazin-1-yl]carbonyl}cyclopropan-1-ol],500 to 5000 nM
5,COc1ccc(-c2ccc(C(=O)N3CCN(C(=O)C4(O)CC4)CC3)cc2)c(F)c1 [1-[(4-{[4-(2-fluoro-4-methoxyphenyl)phenyl]carbonyl}piperazin-1-yl)carbonyl]cyclopropan-1-ol],500 to 5000 nM

# Same assay, conditions: FASN enzymatic assay; Table 2-3
row,Structure (SMILES),IC50
1,Cc1ccc(-c2ccc(C(=O)N3CCN(C(=O)C4(O)CC4)CC3)cc2)cc1 [1-[(4-{[4-(4-methylphenyl)phenyl]carbonyl}piperazin-1-yl)carbonyl]cyclopropan-1-ol],≥ 5000 nM
2,Cc1ccc(F)cc1-c1ccc(C(=O)N2CCN(C(=O)C3(O)CC3)CC2)cc1 [1-[(4-{[4-(5-fluoro-2-methylphenyl)phenyl]carbonyl}piperazin-1-yl)carbonyl]cyclopropan-1-ol],≥ 5000 nM
3,O=C(CO)N1CCN(C(=O)c2ccc(-c3ccccc3)cc2)CC1 [2-hydroxy-1-{4-[(4-phenylphenyl)carbonyl]piperazin-1-yl}ethan-1-one],≥ 5000 nM
4,COc1c(F)cccc1-c1ccc(C(=O)N2CCN(C(=O)C3(O)CC3)CC2)cc1 [1-[(4-{[4-(3-fluoro-2-methoxyphenyl)phenyl]carbonyl}piperazin-1-yl)carbonyl]cyclopropan-1-ol],≥ 5000 nM
5,CC(C)Oc1ccc(Cl)cc1-c1ccc(C(=O)N2CCN(C(=O)C3(O)CC3)CC2)cc1 [1-{[4-({4-[5-chloro-2-(propan-2-yloxy)phenyl]phenyl}carbonyl)piperazin-1-yl]carbonyl}cyclopropan-1-ol],≥ 5000 nM
6,"Cc1nc(-c2ccc3scnc3c2)sc1C(=O)N1CCN(C(=O)C2(O)CC2)CC1 [1-[(4-{[2-(1,3-benzothiazol-5-yl)-4-methyl-1,3-thiazol-5-yl]carbonyl}piperazin-1-yl)carbonyl]cyclopropan-1-ol]",≥ 5000 nM
7,COC(C)(C)C(=O)N1CCN(C(=O)c2ccc(-c3ccccc3)cc2)CC1 [2-methoxy-2-methyl-1-{4-[(4-phenylphenyl)carbonyl]piperazin-1-yl}propan-1-one],≥ 5000 nM
8,Cc1cccc(-c2ccc(C(=O)N3CCN(C(=O)C4(O)CC4)CC3)cc2)c1 [1-[(4-{[4-(3-methylphenyl)phenyl]carbonyl}piperazin-1-yl)carbonyl]cyclopropan-1-ol],≥ 5000 nM
